Test results: patent publication US11273152B2, “TRPV2 antagonists” (Instituto de Medicina Molecular João Lobo Antunes, priority 2017, dated 2022)
“Also recorded” adds a separate entry of the source.

Columns and labels:
TRPV5 = TRPV5 (Homo sapiens, UniProt Q9NQA5); assay: Fluorescence cell-based assay, TRPV5; conditions: calcium 5 dye, duplicate
Method: (§1) The assays were performed at SB Discovery (Glasgow, UK) on a fee-for-service basis. Human TRP cells were trypsinised, counted and seeded in black, clear-bottomed 96 well plates at a density of 50,000 cells per well in 100 μL volume and incubated overnight. Next day, the cells were loaded with calcium 5 dye or membrane potential dye. TRPV1-5, TRPA1, TRPM2, TRPM3, and TRPM8 were tested using the calcium 5 dye. TRPC1, TRPC3-7, and TRPM4-5 were tested using the membrane potential dye. Both dye solutions were made up in HEPES buffered Hank's balanced salt solution (HBSS). Dye solution (90 μL) was added to the wells and incubated at 37° C. for 1 hour. Test compounds and standard inhibitors (10 μL) were then added to the wells and incubated at room temperature for 10 minutes. The plates were then placed in the flexstation and fluorescence monitored every 1.52 seconds. After 20 seconds agonist was added and the fluorescence monitored for 2 minutes at 485 nm/525 nm and 530 nm/565 nm, Ex/Em, for the calcium 5 dye and the membrane potential dye respectively. Controls-TRPV1: capsazepine; TRPV2: tranilast; TRPV3: ruthenium red; TRPV4: ruthenium red; TRPV5: Gd^3+; TRPA1, ruthenium red; TRPC1: Gd^3+; TRPC3: Pyr3; TRPC4: ML 204; TRPC5: ML 204; TRPC6: ML 204; TRPC7: SKF 96365; TRPM2: 2-APB; TRPM3: Mef acid; TRPM4: clotrimazole; TRPM5: TPPO; TRPM8: 2-APB. […]

LNCaP cell line = assay: Cell viability, LNCaP; type: cell-based; conditions: 5 and 10 μM, 24 hours
Method: 5,000 cells/well were seeded in 96 well plates with DMEM containing 2% FBS. The next day piperlongumine was added at various concentrations. […] At 24, 48 and 72 hours the media was removed and replaced with CellTiter-Blue (Promega, 1:20 in media). The plate was incubated for 90 minutes before measuring fluorescence intensity.

[1] = tested on: human, ligand-gated TRP channels; assay: TRP channel panel screen, activation; type: cell-based; conditions: TRPV, TRPC, TRPM, TRPA panel
rabbit TRPV2 orthologue = assay: Isothermal titration calorimetry, rabbit TRPV2; type: binding; conditions: rabbit TRPV2 constructs; 100 μM
TRPC4 = TRPC4 (Homo sapiens, UniProt Q9UBN4); assay: Fluorescence cell-based assay, TRPC4; conditions: membrane potential dye, duplicate
Method: as §1

TRPC1 = TRPC1 (Homo sapiens, UniProt P48995); assay: Fluorescence cell-based assay, TRPC1; conditions: membrane potential dye, duplicate
Method: as §1

HepG2 cells = assay: Wound-healing scratch assay, HepG2; type: cell-based; conditions: 24-hour
[2] = tested on: sperm whale TRPV2 orthologue; assay: Isothermal titration calorimetry, sperm whale TRPV2; type: binding; conditions: sperm whale TRPV2 constructs; 100 μM

TRPC1, sequence (P48995 whole entry): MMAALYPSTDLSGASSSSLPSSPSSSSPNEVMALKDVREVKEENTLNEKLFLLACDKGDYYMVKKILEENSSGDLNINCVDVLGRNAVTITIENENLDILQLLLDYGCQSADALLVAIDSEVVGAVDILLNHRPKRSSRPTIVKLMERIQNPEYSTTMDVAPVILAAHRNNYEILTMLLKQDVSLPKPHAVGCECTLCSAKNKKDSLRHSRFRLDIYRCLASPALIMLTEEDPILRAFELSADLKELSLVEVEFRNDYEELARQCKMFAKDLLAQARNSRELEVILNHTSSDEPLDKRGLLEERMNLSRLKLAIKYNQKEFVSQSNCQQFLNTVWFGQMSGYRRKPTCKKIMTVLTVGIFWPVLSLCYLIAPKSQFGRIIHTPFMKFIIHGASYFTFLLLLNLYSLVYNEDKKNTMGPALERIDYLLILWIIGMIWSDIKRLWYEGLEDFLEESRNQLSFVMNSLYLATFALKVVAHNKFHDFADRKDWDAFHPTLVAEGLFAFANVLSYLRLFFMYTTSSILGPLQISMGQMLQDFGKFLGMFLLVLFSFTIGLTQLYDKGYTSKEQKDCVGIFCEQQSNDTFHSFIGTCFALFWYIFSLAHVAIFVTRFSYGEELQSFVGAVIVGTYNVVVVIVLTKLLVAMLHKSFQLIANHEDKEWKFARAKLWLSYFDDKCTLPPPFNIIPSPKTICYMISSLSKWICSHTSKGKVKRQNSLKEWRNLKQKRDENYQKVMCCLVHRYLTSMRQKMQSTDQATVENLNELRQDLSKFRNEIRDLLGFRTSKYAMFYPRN
TRPC4, sequence (Q9UBN4 whole entry): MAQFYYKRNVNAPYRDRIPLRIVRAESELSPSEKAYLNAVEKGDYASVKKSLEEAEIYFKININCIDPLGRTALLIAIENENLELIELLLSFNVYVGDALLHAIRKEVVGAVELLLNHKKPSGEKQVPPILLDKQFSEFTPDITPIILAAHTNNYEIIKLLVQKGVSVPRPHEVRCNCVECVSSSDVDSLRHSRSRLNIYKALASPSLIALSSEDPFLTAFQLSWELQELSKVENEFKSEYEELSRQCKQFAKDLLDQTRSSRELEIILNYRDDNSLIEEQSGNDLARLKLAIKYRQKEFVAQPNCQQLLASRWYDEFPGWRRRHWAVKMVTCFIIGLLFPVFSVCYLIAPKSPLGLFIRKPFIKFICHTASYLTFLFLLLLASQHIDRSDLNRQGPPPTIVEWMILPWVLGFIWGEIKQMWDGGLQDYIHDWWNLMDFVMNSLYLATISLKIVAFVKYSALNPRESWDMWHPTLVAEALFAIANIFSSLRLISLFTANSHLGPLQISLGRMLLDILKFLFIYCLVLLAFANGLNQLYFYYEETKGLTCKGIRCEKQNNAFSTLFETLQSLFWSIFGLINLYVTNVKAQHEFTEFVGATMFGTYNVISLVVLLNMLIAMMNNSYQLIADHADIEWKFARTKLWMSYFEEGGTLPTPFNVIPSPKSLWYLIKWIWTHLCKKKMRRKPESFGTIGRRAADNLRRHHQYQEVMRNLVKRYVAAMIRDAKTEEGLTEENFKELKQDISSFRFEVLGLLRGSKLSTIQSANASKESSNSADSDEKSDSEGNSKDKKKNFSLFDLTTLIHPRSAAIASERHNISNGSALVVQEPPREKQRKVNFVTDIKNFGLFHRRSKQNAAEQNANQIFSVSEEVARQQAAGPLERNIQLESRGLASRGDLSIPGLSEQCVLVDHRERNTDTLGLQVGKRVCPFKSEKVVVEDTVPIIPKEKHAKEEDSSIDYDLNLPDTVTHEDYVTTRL
TRPV5, sequence (Q9NQA5 whole entry): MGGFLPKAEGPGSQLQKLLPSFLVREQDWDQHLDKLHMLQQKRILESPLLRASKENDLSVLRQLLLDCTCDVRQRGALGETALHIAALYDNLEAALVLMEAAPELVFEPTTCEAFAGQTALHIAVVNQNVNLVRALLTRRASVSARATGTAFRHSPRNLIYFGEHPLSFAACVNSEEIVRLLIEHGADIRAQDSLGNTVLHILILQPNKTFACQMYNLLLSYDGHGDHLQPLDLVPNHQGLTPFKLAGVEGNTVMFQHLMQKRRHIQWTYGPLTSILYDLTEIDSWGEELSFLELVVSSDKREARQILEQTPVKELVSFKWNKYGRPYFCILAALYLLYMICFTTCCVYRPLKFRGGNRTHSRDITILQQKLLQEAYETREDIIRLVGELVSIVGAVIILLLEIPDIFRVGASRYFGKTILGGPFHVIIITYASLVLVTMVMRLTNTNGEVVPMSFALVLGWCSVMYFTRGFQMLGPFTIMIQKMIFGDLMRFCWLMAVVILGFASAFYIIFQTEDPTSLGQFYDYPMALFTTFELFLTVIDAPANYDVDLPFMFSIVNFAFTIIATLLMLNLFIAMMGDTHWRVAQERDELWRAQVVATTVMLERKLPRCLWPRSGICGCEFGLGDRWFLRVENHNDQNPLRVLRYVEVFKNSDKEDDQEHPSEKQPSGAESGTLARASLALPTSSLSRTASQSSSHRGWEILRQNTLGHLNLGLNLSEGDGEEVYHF

SMILES: COc1cc(/C=C/C(=O)N2CCC=CC2=O)cc(OC)c1OC [Compound 1, piperlongumine]
- IC50 (TRPV5): > 100 µM
- Cell viability (LNCaP cell line): cell viability was compromised
- Activation of the assayed TRP channels [1]: did not activate any of the assayed channels
- Binding by isothermal titration calorimetry (rabbit TRPV2 orthologue): did not bind
- IC50 (TRPC4): > 100 µM
- IC50 (TRPC1): > 100 µM
- Cell death during wound-healing assay (HepG2 cells; 5 μM): did not induce significant cell death
- Cell migration, wound healing (HepG2 cells; 1 at 5 μM): significantly reduced migration; also recorded: inhibits cancer cell migration in a Ca^2+-dependent manner
- Binding by isothermal titration calorimetry [2]: did not bind
